This is an account of results in ChEMBL document CHEMBL1201862, “PubChem BioAssay data set” (2004).

The source made the active and inactive calls. Where only a bound is given, the exact number is not on record here.

Data set [1] concerns the target T1, RNA-binding protein pos-1 (Caenorhabditis elegans, UniProt G5EF15).
T1 sequence (G5EF15 whole entry): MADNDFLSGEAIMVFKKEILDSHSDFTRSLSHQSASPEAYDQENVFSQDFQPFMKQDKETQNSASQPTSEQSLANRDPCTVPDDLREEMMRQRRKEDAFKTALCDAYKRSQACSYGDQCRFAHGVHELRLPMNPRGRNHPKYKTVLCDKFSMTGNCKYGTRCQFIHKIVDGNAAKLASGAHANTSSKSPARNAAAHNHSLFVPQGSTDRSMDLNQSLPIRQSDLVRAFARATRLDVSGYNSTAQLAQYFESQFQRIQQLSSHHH
As to the kind of experiment: inhibitors of POS-1/mex-3 RNA binding, dose response, biochemical, fluorescence polarization (AID 1964).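 Also: purified POS-1 fused to maltose binding protein made in E. coli; potency of compounds blocking POS-1 binding to fluorescent RNA.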 Background: Fluorescence polarisation rises when a labelled molecule tumbles more slowly, as on binding a larger partner.

Data set [2] addresses T2, Zinc finger protein mex-5 (Caenorhabditis elegans, UniProt Q9XUB2).
T2 sequence (Q9XUB2 whole entry): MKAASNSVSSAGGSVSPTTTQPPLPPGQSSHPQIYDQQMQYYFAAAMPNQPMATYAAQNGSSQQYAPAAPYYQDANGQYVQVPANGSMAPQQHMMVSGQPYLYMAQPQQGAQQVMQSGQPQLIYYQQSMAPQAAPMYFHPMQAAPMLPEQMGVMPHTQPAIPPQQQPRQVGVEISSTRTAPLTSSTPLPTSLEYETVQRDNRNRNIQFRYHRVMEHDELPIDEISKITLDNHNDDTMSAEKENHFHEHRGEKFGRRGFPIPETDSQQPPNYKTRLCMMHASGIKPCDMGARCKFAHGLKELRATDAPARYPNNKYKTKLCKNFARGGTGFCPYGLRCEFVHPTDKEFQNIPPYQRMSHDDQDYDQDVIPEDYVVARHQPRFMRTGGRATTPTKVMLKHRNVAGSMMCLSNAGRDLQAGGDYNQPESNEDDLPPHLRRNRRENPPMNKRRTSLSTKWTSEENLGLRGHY
Description: MEX-5/TCR-2 RNA interaction inhibitors, dose response, biochemical, C. elegans, fluorescence polarization (AID 1960).

A further data set concerns HeLa. As to the kind of experiment: HeLa cell cytotoxicity, dose response, cytotoxicity control, 24 h, cherry-picked samples (AID 504726).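 Also: potency for cytotoxicity as loss of luminescence signal.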 In kind it is functional, cell-based. As to conditions: Homo sapiens.
The test system of data set [3] is Escherichia coli. As to the kind of experiment: microbe, parasite or virus in culture.
In data set [4] the test system is Escherichia coli. Description: microbe, parasite or virus in culture. This is another data set of the same source.
A further data set deals with Cytochrome P450 2C19 (Homo sapiens, UniProt P33261). As to the kind of experiment: Cytochrome panel assay with activity outcomes. Panel member name: p450-cyp2c19 Compounds with AC50 equal or less than 10 uM are considered active. In kind it is functional.
In the next data set the target is T3, Cytochrome P450 1A2 (Homo sapiens, UniProt P05177).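 Also: PubChem cytochrome P450 panel assay, CYP1A2 panel member.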
T3 sequence (P05177 whole entry): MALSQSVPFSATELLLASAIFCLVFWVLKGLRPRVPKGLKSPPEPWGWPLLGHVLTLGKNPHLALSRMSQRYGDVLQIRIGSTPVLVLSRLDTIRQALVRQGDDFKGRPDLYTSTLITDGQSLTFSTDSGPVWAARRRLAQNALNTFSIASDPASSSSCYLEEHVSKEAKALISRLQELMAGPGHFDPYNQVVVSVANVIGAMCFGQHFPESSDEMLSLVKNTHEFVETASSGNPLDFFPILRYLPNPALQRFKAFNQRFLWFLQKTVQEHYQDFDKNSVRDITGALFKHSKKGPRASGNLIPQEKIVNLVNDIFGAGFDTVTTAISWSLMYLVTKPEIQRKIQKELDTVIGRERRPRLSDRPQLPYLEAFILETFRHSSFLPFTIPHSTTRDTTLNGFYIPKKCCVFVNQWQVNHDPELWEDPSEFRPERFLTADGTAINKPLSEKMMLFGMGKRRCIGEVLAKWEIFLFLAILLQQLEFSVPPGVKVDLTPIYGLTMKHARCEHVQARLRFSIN

A further data set deals with Cytochrome P450 3A4 (Homo sapiens, UniProt P08684).
For data set [5], the target named is Potassium voltage-gated channel subfamily KQT member 2 (Rattus norvegicus, UniProt O88943). Description: KCNQ2 channel activators, analog series, SAR follow-up, automated patch clamp, KCNQ2-CHO cells (AID 493113). In kind it is functional. (In general: In patch-clamp work, channel activity is measured electrically.)
Chain of Potassium voltage-gated channel subfamily KQT member 2 (O88943 whole entry): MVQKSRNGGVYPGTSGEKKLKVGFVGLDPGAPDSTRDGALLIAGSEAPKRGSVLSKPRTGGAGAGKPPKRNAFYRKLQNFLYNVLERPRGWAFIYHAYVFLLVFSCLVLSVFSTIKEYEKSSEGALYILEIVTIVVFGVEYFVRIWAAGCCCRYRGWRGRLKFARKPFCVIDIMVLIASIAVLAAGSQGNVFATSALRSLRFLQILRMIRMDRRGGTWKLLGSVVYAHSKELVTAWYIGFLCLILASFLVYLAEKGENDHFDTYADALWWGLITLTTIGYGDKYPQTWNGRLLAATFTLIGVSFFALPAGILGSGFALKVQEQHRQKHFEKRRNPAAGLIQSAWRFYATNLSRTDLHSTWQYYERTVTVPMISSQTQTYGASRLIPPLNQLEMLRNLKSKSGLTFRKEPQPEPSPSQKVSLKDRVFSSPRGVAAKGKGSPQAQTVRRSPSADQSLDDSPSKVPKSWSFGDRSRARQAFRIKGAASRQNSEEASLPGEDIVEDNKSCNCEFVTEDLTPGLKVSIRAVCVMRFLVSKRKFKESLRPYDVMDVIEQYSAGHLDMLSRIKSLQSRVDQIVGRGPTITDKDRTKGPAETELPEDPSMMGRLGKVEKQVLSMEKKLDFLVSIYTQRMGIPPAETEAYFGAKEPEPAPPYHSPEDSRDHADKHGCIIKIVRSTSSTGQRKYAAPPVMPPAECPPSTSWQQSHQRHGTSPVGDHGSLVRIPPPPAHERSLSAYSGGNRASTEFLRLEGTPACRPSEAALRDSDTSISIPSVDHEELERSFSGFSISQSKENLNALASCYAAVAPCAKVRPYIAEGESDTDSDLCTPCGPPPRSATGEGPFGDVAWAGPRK

Chain of Cytochrome P450 2C19 (P33261 whole entry): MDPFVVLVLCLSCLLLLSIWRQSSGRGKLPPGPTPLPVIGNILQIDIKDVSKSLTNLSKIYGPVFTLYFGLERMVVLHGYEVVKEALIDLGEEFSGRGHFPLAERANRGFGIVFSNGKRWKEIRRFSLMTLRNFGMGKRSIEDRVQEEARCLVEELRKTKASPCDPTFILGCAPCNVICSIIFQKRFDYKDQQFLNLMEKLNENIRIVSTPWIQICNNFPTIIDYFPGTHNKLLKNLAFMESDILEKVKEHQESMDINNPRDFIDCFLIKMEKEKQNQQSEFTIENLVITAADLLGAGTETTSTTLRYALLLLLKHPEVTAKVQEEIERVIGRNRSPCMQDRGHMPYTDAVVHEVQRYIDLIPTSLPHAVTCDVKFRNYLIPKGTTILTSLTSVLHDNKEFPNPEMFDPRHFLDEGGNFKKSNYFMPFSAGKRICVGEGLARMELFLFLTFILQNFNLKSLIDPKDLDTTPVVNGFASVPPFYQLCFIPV
Chain of Cytochrome P450 3A4 (P08684 whole entry): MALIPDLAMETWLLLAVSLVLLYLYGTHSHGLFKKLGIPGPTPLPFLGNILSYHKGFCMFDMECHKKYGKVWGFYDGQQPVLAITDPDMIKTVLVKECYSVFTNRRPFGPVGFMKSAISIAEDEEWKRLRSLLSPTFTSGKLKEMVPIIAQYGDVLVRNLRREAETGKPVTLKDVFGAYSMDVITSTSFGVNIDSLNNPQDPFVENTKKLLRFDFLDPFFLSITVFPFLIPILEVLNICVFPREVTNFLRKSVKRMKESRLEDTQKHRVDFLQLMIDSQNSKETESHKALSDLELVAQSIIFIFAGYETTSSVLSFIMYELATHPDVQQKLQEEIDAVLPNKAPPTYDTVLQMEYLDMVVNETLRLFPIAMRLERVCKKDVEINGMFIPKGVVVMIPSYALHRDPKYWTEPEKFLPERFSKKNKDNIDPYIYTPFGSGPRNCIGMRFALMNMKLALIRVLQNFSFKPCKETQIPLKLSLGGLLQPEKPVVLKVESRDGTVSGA

Take `CN(C)C1C(=O)C(C(N)=O)=C(O)C2(O)C(O)=C3C(=O)c4c(O)cccc4C(C)(O)C3C(O)C12` (centres undefined): the values for the EC50 in data set [1] and in data set [2] were 65.8 µM (active) and 29.9 µM (inconclusive), respectively. Moreover, the concentration at half-maximal activity (AC50) in the data set with HeLa is 54.2 µM (active); in the data set on Escherichia coli [3], 14.9 µM (active); in the data set with Escherichia coli [4] it was < 0.3 µM (active).
Consider `O=C(O)CNC(=O)c1ccc([As](=O)(O)O)cc1`, for which the AC50 result on Cytochrome P450 2C19, at Cytochrome P450 1A2 and at Cytochrome P450 3A4 was “inactive” each time.
`CCc1ccc(NC(=O)C2CC3CCC2C3)cc1` (centres undefined): in data set [5], the EC50 is 0.92 µM (active).

Broadly, the EC50 is the midpoint of the concentration-response curve. A word on the AC50: it is the concentration giving half of the maximal activity seen.
